According to ChEMBL document CHEMBL5042497, “Design, synthesis, and biological evaluation of carbamate derivatives of N-salicyloyl tryptamine as multifunctional agents for the treatment of Alzheimer's disease” (Eur J Med Chem, 2022):
Active and inactive are the calls of the source. The calls are words filed in the database; no cut-off is given here.

Columns and labels:
[1] = molecular target: Cholinesterase (Equus caballus, UniProt P81908); test: Inhibition of equine serum BChE using butyrylthiocholine iodide as substrate preincubated for 10 mins followed by substrate addition and measured after 15 mins by Ellman's method
Sequence of Cholinesterase (Equus caballus, UniProt P81908) (P81908 whole entry): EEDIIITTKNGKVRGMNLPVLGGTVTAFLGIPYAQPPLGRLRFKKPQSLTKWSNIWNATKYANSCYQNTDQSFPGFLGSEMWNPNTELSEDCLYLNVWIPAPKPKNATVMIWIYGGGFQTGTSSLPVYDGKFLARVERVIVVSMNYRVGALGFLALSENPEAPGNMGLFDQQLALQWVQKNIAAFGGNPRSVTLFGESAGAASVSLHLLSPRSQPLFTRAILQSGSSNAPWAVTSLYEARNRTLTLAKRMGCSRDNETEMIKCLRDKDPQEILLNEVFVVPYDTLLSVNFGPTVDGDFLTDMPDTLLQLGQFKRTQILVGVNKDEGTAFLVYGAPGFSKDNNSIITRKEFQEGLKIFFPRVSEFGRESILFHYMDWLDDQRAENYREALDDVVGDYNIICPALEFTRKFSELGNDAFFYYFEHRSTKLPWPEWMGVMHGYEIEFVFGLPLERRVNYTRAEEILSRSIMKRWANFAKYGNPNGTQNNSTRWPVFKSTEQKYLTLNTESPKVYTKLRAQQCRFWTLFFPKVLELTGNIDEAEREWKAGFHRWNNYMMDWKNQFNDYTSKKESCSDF

[2] = molecular target: Acetylcholinesterase (Electrophorus electricus, UniProt O42275); test: Inhibition of electric eel AChE using acetylthiocholine iodide as substrate preincubated for 10 mins followed by substrate addition and measured for 15 mins by Ellman's method
Sequence of Acetylcholinesterase (Electrophorus electricus, UniProt O42275) (O42275 whole entry): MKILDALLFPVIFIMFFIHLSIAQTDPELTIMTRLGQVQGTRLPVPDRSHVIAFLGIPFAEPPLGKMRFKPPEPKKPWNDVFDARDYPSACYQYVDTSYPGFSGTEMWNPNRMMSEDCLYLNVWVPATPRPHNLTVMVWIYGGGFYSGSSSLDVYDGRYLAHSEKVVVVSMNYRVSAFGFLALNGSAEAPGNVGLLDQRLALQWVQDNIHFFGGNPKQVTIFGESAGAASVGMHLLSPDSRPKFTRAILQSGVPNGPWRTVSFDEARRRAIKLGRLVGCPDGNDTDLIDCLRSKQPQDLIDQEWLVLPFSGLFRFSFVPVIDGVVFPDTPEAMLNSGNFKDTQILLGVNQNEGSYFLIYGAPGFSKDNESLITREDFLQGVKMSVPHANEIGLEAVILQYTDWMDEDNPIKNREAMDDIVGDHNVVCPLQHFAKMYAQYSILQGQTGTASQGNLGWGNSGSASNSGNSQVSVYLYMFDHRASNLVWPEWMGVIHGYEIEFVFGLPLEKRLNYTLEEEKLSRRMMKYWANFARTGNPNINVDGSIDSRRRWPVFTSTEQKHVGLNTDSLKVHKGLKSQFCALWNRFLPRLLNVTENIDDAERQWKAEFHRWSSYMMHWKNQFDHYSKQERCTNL

[3] = test system: HT-22; test: cells; assay type: functional, cell-based; conditions: Mus musculus, HT-22, 24 h
Description: Cytotoxicity against mouse HT-22 cells assessed as reduction in cell viability measured after 24 hrs by MTT assay

[4] = test system: BV-2; test: cells; assay type: functional, cell-based; conditions: Mus musculus, BV-2, 24 h
Description: Cytotoxicity against mouse BV-2 cells assessed as reduction in cell viability measured after 24 hrs by MTT assay

[5] = test system: Mus musculus; test: Anti-alzheimer activity against scopolamine-induced cognitive dysfunction mouse model assessed as change in neuron damage in hippocampal CA3 region at 5 mg/kg, po measured after 10 days by Nissl staining based assay; assay type: functional, organism-based; conditions: time 10.0 day
[6] = test system: BV-2; test: Anti-neuroinflammation in mouse BV-2 cells assessed as decrease in LPS-induced IL-6 production at 1.25 umol/L measured after 24 hrs by ELISA; assay type: functional, cell-based; conditions: dose 1.25 µmol/L
[7] = test system: Mus musculus; test: Anti-alzheimer activity against scopolamine-induced cognitive dysfunction mouse model assessed as […] of AChE activity in hippocampus at 5 mg/kg, po measured after 10 days by colorimetric analysis; assay type: functional, organism-based; conditions: time 10.0 day
[8] = test system: BV-2; test: Anti-neuroinflammation in mouse BV-2 cells assessed as decrease in LPS-induced iNOS activity at 1.25 umol/L by fluorescence based assay; assay type: functional, cell-based; conditions: dose 1.25 µmol/L
[9] = test system: Mus musculus; test: Anti-alzheimer activity against scopolamine-induced cognitive dysfunction mouse model assessed as change in neuron damage in hippocampal CA1 region at 5 mg/kg, po measured after 10 days by Nissl staining based assay; assay type: functional, organism-based; conditions: time 10.0 day
[10] = test system: BV-2; test: Anti-neuroinflammation in mouse BV-2 cells assessed as decrease in LPS-induced TNF-alpha production at 1.25 umol/L measured after 24 hrs by ELISA; assay type: functional, cell-based; conditions: dose 1.25 µmol/L
[11] = molecular target: Cholinesterase (Homo sapiens, UniProt P06276); test: Inhibition of BuChE (unknown origin)
Sequence of Cholinesterase (Homo sapiens, UniProt P06276) (P06276 whole entry): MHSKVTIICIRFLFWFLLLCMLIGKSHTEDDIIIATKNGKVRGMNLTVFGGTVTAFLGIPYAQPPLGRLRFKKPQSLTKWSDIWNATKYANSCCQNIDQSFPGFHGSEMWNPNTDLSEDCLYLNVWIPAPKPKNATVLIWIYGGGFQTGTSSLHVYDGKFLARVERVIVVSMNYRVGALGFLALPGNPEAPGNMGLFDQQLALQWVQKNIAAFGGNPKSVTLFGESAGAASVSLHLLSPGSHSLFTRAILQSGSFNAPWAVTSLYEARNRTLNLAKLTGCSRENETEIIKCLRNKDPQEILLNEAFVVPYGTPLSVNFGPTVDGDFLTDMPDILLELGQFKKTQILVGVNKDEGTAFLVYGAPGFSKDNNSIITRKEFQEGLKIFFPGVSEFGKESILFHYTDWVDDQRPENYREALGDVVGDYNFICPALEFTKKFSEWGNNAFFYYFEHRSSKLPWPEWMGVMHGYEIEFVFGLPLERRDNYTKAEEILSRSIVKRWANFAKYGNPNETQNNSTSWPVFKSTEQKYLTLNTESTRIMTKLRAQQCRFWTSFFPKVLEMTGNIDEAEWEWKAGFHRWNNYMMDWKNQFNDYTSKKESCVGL

[12] = test system: BV-2; test: Anti-neuroinflammation in mouse BV-2 cells assessed as decrease in LPS-induced TNF-alpha production at 12.5 umol/L measured after 24 hrs by ELISA; assay type: functional, cell-based; conditions: dose 12.5 µmol/L
[13] = test system: Mus musculus; test: Anti-alzheimer activity against scopolamine-induced cognitive dysfunction mouse model assessed as […] of AChE activity in hippocampus at 50 to 100 mg/kg, po dosed for 10 days by colorimetric analysis; assay type: functional, organism-based; conditions: dose 50-100 mg/kg, time 10.0 day
[14] = test system: Mus musculus; test: Anti-alzheimer activity against scopolamine-induced cognitive dysfunction mouse model assessed as change in neuron damage in hippocampal CA1 region at 50 to 100 mg/kg, po measured after 10 days by Nissl staining based assay; assay type: functional, organism-based; conditions: Hippocampus, dose 50-100 mg/kg, time 10.0 day
[15] = test system: BV-2; test: Anti-neuroinflammation in mouse BV-2 cells assessed as decrease in LPS-induced iNOS activity at 12.5 umol/L by fluorescence based assay; assay type: functional, cell-based; conditions: dose 12.5 µmol/L
[16] = test system: BV-2; test: Anti-neuroinflammation in mouse BV-2 cells assessed as decrease in LPS-induced IL-6 production at 12.5 umol/L measured after 24 hrs by ELISA; assay type: functional, cell-based; conditions: dose 12.5 µmol/L
[17] = test system: BV-2; test: Anti-neuroinflammation in mouse BV-2 cells assessed as inhibition of LPS-induced NO production at 100 to 3.125 umol/L measured after 24 hrs by Griess method; assay type: functional, cell-based; conditions: dose 100-3.125 µmol/L
[18] = test system: Mus musculus; test: Anti-alzheimer activity against scopolamine-induced cognitive dysfunction mouse model assessed as change in neuron damage in hippocampal CA3 region at 50 to 100 mg/kg, po measured after 10 days by Nissl staining based assay; assay type: functional, organism-based; conditions: Hippocampus, dose 50-100 mg/kg, time 10.0 day
[19] = molecular target: Amyloid-beta precursor protein (Homo sapiens) (UniProt P05067); test: Inhibition of amyloid beta (1 to 42 ) (unknown origin) aggregation at 20 umol/L incubated for 24 hrs by thioflavin-T fluorescence method relative to control; conditions: dose 20.0 µmol/L
Sequence of Amyloid-beta precursor protein (Homo sapiens) (P05067 whole entry): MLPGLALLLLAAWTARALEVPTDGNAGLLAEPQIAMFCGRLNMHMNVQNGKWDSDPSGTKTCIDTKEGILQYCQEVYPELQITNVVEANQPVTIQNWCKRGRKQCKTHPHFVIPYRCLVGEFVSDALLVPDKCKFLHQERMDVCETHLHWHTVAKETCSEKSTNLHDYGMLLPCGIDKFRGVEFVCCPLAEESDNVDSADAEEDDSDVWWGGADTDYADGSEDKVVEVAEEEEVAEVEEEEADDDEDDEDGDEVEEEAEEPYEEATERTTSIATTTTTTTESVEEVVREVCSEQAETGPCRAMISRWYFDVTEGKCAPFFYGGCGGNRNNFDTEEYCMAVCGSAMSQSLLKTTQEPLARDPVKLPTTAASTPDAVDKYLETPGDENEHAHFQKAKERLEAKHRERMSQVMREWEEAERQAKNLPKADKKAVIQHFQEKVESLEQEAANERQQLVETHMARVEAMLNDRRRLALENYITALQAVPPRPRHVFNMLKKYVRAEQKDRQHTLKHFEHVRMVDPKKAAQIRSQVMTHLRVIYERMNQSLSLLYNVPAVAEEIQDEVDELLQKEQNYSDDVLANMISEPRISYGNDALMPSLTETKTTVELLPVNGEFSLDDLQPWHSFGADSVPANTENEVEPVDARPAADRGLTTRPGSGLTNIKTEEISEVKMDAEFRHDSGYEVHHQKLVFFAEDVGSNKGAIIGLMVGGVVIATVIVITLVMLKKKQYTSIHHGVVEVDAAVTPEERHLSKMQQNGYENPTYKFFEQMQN

[20] = molecular target: Acetylcholinesterase (Homo sapiens, UniProt P22303); test: Inhibition of AChE (unknown origin)
Sequence of Acetylcholinesterase (Homo sapiens, UniProt P22303) (P22303 whole entry): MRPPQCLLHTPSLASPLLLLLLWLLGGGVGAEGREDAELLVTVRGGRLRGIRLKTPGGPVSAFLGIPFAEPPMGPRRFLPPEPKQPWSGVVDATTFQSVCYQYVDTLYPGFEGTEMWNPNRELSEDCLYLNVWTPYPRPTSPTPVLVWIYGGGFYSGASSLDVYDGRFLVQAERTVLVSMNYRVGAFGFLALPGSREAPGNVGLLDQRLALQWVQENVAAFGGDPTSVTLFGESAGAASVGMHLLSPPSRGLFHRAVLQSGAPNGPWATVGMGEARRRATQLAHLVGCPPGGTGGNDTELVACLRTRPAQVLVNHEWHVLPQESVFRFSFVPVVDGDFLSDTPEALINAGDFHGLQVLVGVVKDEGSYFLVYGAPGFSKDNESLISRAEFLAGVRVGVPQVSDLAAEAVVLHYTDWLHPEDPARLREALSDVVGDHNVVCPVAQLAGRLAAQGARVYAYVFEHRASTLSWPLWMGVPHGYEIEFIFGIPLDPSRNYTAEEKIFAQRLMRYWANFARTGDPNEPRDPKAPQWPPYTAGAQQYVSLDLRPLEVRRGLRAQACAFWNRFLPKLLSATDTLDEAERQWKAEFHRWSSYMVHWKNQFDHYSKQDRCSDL

Compound	IC50 [1]	IC50 [2]	IC50 [3]	IC50 [4]	further results
CON(C)C(=O)Oc1cccc(C(=O)NCCc2c[nH]c3ccccc23)c1	1.27 µM	> 100 µM	48.3 µM	12.4 µM	
COc1cc2c(cc1OC)C(=O)C(CC1CCN(Cc3ccccc3)CC1)C2 (stereo unspecified) [DONEPEZIL]			56.4 µM	1.54 µM	Activity [5]: Active; Activity [6]: Active; Activity [7]: Active; Activity [8]: Active; Activity [9]: Active; Activity [10]: Active
CC(C)c1ccc(NC(=O)Oc2ccc3c(c2)[C@]2(C)CCOC2O3)cc1 (stereo partly specified)					IC50 [11]: 0.027 µM
O=C(NCCc1c[nH]c2ccccc12)c1ccccc1O	15.9 µM	23.2 µM	101 µM	26.8 µM	Activity [12]: Active; Activity [13]: Active; Activity [14]: Active; Activity [15]: Active; Activity [16]: Active; Activity [17]: Active; Activity [18]: Active; inhibition [19]: 19.6%
O=S1(=O)OC(c2ccc(O)cc2)(c2ccc(O)cc2)c2ccccc21					inhibition [19]: 34.8%
CN1CC[C@@]2(C)c3cc(OC(=O)Nc4ccccc4)ccc3N(C)[C@@H]12 [PHENSERINE]					IC50 [20]: 1.56 µM
O=C(NCCc1c[nH]c2ccccc12)c1ccccc1OC(=O)N1CCc2ccccc21	30 µM	> 100 µM	> 100 µM	137 µM	
CN(C)C(=O)Oc1ccccc1C(=O)NCCc1c[nH]c2ccccc12	3.95 µM	16.7 µM	75.4 µM	35.2 µM	
CN(C(=O)Oc1ccccc1C(=O)NCCc1c[nH]c2ccccc12)c1ccccc1	29.7 µM	> 100 µM	48.5 µM	20.6 µM	
O=C(NCCc1c[nH]c2ccccc12)c1ccccc1OC(=O)N1CCC1	17 µM	> 100 µM	40.1 µM	33.3 µM	
O=C(NCCc1c[nH]c2ccccc12)c1ccccc1OC(=O)N(Cc1ccccc1)Cc1ccccc1	15.4 µM	> 100 µM	> 100 µM	137 µM	
CCCN(CCC)C(=O)Oc1ccccc1C(=O)NCCc1c[nH]c2ccccc12	35.8 µM	37.2 µM	25.4 µM	0.33 µM	
O=C(NCCc1c[nH]c2ccccc12)c1ccccc1OC(=O)N(c1ccccc1)c1ccccc1	4.73 µM	> 100 µM	> 100 µM	126 µM	
O=C(NCCc1c[nH]c2ccccc12)c1ccccc1OC(=O)N1CCCCCC1	24.1 µM	> 100 µM	25.1 µM	32.7 µM	
O=C(NCCc1c[nH]c2ccccc12)c1ccccc1OC(=O)N1CCOCC1	10 µM	> 100 µM	97.7 µM	82.8 µM	
CN1c2ccc(OC(=O)NCC3CCCCC3)cc2[C@]2(C)CCN(CCc3ccccc3)[C@H]12					IC50 [11]: 0.0018 µM; IC50 [20]: 0.0018 µM
CCNC(=O)Oc1ccc2c(c1)[C@]1(C)CCOC1O2 (stereo partly specified)					IC50 [11]: 0.006 µM; IC50 [20]: 0.006 µM
CN1CCN(C(=O)Oc2ccccc2C(=O)NCCc2c[nH]c3ccccc23)CC1	5.14 µM	66 µM	92.7 µM	49.7 µM	
CNC(=O)Oc1ccc2c(c1)[C@]1(C)CCOC1N2C (stereo partly specified)					IC50 [20]: 0.004 µM
CCN(CC)C(=O)Oc1ccccc1C(=O)NCCc1c[nH]c2ccccc12	14 µM	68.5 µM	57.2 µM	32.1 µM	
O=C(NCCc1c[nH]c2ccccc12)c1ccccc1OC(=O)N1CCCCC1	> 100 µM	> 100 µM	24.4 µM	32.8 µM	
CON(C)C(=O)Oc1ccc(C(=O)NCCc2c[nH]c3ccccc23)cc1	6.61 µM	3.11 µM	> 100 µM	30.3 µM	
O=C(NCCc1c[nH]c2ccccc12)c1ccccc1OC(=O)N1CCCC1	1.2 µM	> 100 µM	64.3 µM	56 µM	
O=C(NCCc1c[nH]c2ccccc12)c1ccccc1OC(=O)N1CCSCC1	1.44 µM	> 100 µM	> 100 µM	1.53 µM	
CCCCN(CCCC)C(=O)Oc1ccccc1C(=O)NCCc1c[nH]c2ccccc12	8.01 µM	34.9 µM	12.8 µM	116 µM	
